# Results reported in patent US6355785B1, “Guanosine-rich oligonucleotide integrase inhibitors” (Aronex Pharmaceuticals, Inc., priority 1993, dated 2002).
# Where two headings read alike, the source gives them in different places.
# Experiments:
# Macrophages = type: cell-based, human
# Description: (§1) In other experiments of the effect of T30177 on the viability of primary human PBMCs, PBLs and macrophages was determined using the trypan blue dye exclusion technique. Griffiths, B., IRL Press, p. 48 (1992), or by measuring the degree of [^3H]thymidine or [^3]leucine uptake in these cells (McGrath, M. S., et al. Proc. Natl. Acad. Sci. USA 86:2844-2848 (1989)).
# (§2) Cytotoxicity Assays. The cytotoxicity of T30177 was determined using several different cell lines and primary human cells as described above. The cytotoxicity profile obtained for log phase growing cells was variable depending upon the cell line used, while the slower growing PBMCs, PBLs, and macrophages all tolerated the compound at concentrations exceeding 100 μM as monitored using the trypan blue exclusion, [^3H]thymidine uptake, or [^3H]leucine uptake techniques.
# PBLs = type: cell-based, human
# Description: as §1, §2
# PBMC = type: cell-based, human
# Description: as §1, §2
# [1] = set-up: species or system cynomolgus monkeys; details: cynomolgus monkey, in vivo
# Description: Dosing. Twelve experimentally naive cynomolgus monkeys were assigned to four groups of three animals each. Prior to dosing, each animal was lightly sedated with a combination of ketamine (1 0 mg/kg) and diazepam (0.5 mg/kg), and a catheter was introduced into the femoral artery for recording central arterial pressure. Monkeys were given a single intravenous infusion of 5, 20, or 50 mg AR177/kg or saline over ten minutes through a cephalic vein catheter using a Harvard infusion pump. Arterial blood samples were drawn at −10, +10, +20, +40, +60 and +120 minutes relative to the initiation of infusion into EDTA-containing tubes for hematology, complement factors, coagulation assay, serum chemistry, and plasma AR177 determination. At 24 hours post-infusion, blood was drawn via the femoral vein into EDTA-containing tubes for these same parameters. The concentration of AR177 in dosing solutions was confirmed post experiment by absorbance at 280 nm on a spectrophotometer. For the determination of AR177 by HPLC, the plasma fraction was obtained by low speed centrifugation of blood, and stored at −20° C. until used. Electrocardiograms (ECGs), central pressure, and heart rate were recorded continuously for 120 minutes following the initiation of doing. Table E-1 summarizes the study design. The animals were observed twice daily pharmacotoxic signs and general health beginning two days before dosing and for seven days following dosing. The monkeys were not necropsied at the end of the study.
# Hematology and coagulation parameters. The following are determined: red blood cell count and morphology, total and differential white blood cells, hemoglobin, hematocrit, prothrombin time, fibrinogen, mean cell hemoglobin, mean corpuscular volume, mean corpuscular hemoglobin concentration, platelet count, and activated partial thromboplastin time. Hematology parameters were determined at Sierra Nevada Laboratories (Reno, Nev.).
# [2] = biological target: recombinant HIV-1 integrase (wild-type) (Human immunodeficiency virus type 1 group M subtype B, UniProt P12497); assay: HIV-1 integrase 3′-processing and strand transfer assays; type: biochemical; set-up: Purified recombinant HIV-1 integrase enzyme (wild-type) was a generous gift from Dr. R. Craigie; purchased gift of Dr. R. Craigie, Laboratory of Molecular Biology, NIDDK (not bought)
# [3] = 3′-processing, read-out: Anti-Integrase Assay IC50 3′-proc
# [4] = strand transfer, read-out: Anti-Integrase Assay IC50 strand tran.
Compound,CC50 (Macrophages) [µM],TC25 (Macrophages) [µM],TC95 (Macrophages) [µM],CC50 (PBLs) [µM],TC25 (PBLs) [µM],TC95 (PBLs) [µM],CC50 (PBMC) [µM],TC25 (PBMC) [µM],TC95 (PBMC) [µM],"anticoagulant potency, less potent than thrombin-binding aptamer oligonucleotide [1] [fold]",hematology values [1],no effect plasma AR177 concentration versus aPTT [1],plasma AR177 concentration at doubling of aPTT [1],plasma AR177 concentration at tripling of aPTT [1],increase in potency (3′-processing) with magnesium instead of manganese [2],"IC50 [2, 3] [nM]","IC50 ([2]; HIV-1 integrase, read-out: IC50 3′-processing) [nM]",IC50 ([2]; read-out: Enzyme IC50 3-′process) [nM],IC50 ([2]; read-out: Enzyme IC50 Stran Trans) [nM],"IC50 [2, 4] [nM]"
"5′-gtggtgggtgggtgggt-3′ (GTGGTGGGTGGGTGGGT; phosphorothioate termini, further chemistry not given here) [T30177, pPT version of parent compound I100-15, 17 mer]",> 100,>100,>100,> 100,>100,>100,> 100,>100,>100,40,no changes in hematology values attributable to AR177,–,–,–,–,–,–,–,–,–
"5′-gtggtgggtgggtgggt-3′ [T30177] (GTGGTGGGTGGGTGGGT; phosphorothioate termini, further chemistry not given here) [pPT version of parent compound I100-15, 17 mer]",–,–,–,–,–,–,–,–,–,–,–,60-100 ug AR177/mL,100-250 ug AR177/mL,250-300 fig AR177/mL,four to five-fold,92,55,49,79,46
"Cc1cn([C@H]2C[C@H](N=[N+]=[N-])[C@@H](CO)O2)c(=O)[nH]c1=O [AZT, 3′-azido-3′-deoxythymidine]",–,–,–,–,–,–,–,–,–,–,–,–,–,–,–,> 1000,–,–,–,> 1000
